According to patent publication US7625917B2, “Thiolesters and uses thereof” (priority 1998, dated 2009):
pEC50, pIC50: −log10 of the molar value. Like-named read-outs stand apart in the source and are kept apart here.

Experiments:
HIV-1RF = assay: XTT cytoprotection assay (antiviral activity); assay type: cell-based
Excerpt: One exemplary means to determine antiviral activity is with CEM-SS cells and virus (e.g., HIV-1RF) (MOI=0.01) using the XTT (2,3-bis[2-methoxy-4-nitro-5-sulfophenyl]-5-[(phenylamino)carbonyl]-2H-tetrazolium hydroxide) cytoprotection assay, as described by Rice (1993) PNAS 90:9721-9724, and Rice (1997) Antimicrob. Agents Chemother. 41:419-426. Briefly, cells are infected with HIV-1 RF (or other virus to be tested) in the presence of various dilutions of test compounds (thiolesters and controls). The cultures are incubated for seven days. During this time control cultures without protective compounds (i.e., compounds with anti-viral activity) replicate virus, induce syncytia, and result in about 90% cell death. The cell death is measured by XTT dye reduction. XTT is a soluble tetrazolium dye that measures mitochondrial energy output, similar to MTT. Positive controls using dextran sulfate (an attachment inhibitor) or 3′-Azido-2′-3′-dideoxythymidine, AZT (a reverse transcriptase inhibitor) are added to each assay. Individual assays are done in duplicate using a sister plate method.
Effective antiviral concentrations providing 50% cytoprotection (EC50), and cellular growth inhibitory concentrations causing 50% cytotoxicity (IC50) are calculated.

[1] = molecular target: T1, recombinant HIV-1 NCp7 protein (Human immunodeficiency virus type 1 group M subtype B, UniProt P03347); assay: Trp37 zinc finger fluorescence (zinc ejection) assay; assay type: biochemical
T1 construct: recombinant HIV-1 NCp7 protein
Procedure: Zinc finger reactivity was measured using a Zn specific fluorochrome, TSQ, N-(6-methoxy-8-quinolyl)-p-toluenesulfonamide, assay or a Trp37 zinc finger fluorescence assay. Fluorescent measurements of the Trp37 residue in the C-terminal finger of recombinant HIV-1 NCp7 protein were performed as described by Rice (1995) Science 270:1194-1197; Rice (1997) Antimicrob. Agents Chemother. 41:419-426. Measurement of Zn ejection from both fingers was measured using the Zn-selective fluorchrome probe TSQ (Molecular Probes, Eugene Oreg.) as described by Rice (1996) J. Med. Chem 39:3606-3616. […] Briefly, 50 nM NCp7 was treated with test compounds for 1 hour at RT in […] buffer containing 10% glycerol and 50 mM Tris-HCl (pH 7.5). Labeled oligomer (0.1 picomole, end labeled [^32P] was added in an equal volume of buffer containing 10% glycerol, 50 mM Tris-HCl (pH 7.5), 400 mM KCl and 40 mM MgCl2. The reaction was continued for 15 min at room temperature, and a total of […] (or ¼ of the total reaction volume) was separated on nondenaturing 4.5% polyacrylamide gels in 0.5× Tris-Borate electrophoresis buffer. NCp7-oligomer complexes were visualized by autoradiography.
Changes in the intrinsic fluorescence of aromatic protein moieties are commonly used to monitor a reaction which involves a change in protein conformation. In the present invention, fluorescence can be used to monitor the loss of metal ion from a zinc finger, e.g., the loss of zinc from a CCHC retroviral zinc finger protein, after contact with a thiolester of the invention. The intrinsic fluorescence of Trp37 in the second zinc finger of HIV-1 NC protein has been used to monitor nucleic acid binding and conformation of the zinc finger complex (see, Summers (1992) supra).
Zinc ejection is measured by the ability of compounds to chemically attack the cysteines in purified NCp7 protein resulting in a loss of fluorescence due to the. movement of the tryptophan 37 residue […] position on the protein. Zinc ejection is measured and expressed as either percent decrease in total fluorescence or decrease in relative fluorescence units per min during a 30 min assay (RFU/min). A thiolester is considered within the scope of the invention if any amount of zinc ejection is detected.

CEM-SS cells = assay: cells; assay type: cell-based; conditions: for cellular toxicity (in words): high test dose of 316 μM
Procedure: Agents Chemother. […] Briefly, cells are infected with HIV-1 RF (or other virus to be tested) in the presence of various dilutions of test compounds (thiolesters and controls). The cultures are incubated for seven days. […] The cell death is measured by XTT dye reduction. XTT is a soluble tetrazolium dye that measures mitochondrial energy output, similar to MTT. Positive controls using dextran sulfate (an attachment inhibitor) or 3′-Azido-2′-3′-dideoxythymidine, AZT (a reverse transcriptase inhibitor) are added to each assay. Individual assays are done in duplicate using a sister plate method.

[2] = Table 5, average decrease in relative fluorescence units over 30 min
[3] = Table 5, 50% cytotoxicity, read-out: IC50
[4] = Table 10, average decrease in relative fluorescence units over 30 min
[5] = Table 10, 50% cytotoxicity, read-out: IC50
[6] = Table 3, average decrease in relative fluorescence
[7] = Table 3, 50% cytotoxicity, read-out: IC50
[8] = read-out: EC50 (concentration inhibiting 50% virus replication)

## CC(=O)NS(=O)(=O)c1ccc(NC(=O)c2cccc(NC(=O)CCCl)c2)cc1 [Compound 38]
HIV-1RF
  antiviral activity (in words): neither had appreciable antiviral activity
HIV-1RF; Table 5, read-out: EC50
  pEC50: 4.42
[1]
  zinc finger reactivity (in words): modest zinc finger reactivity
[1]; [2]
  Zinc Finger Reactivity RFU/min: 3.9 RFU/min
CEM-SS cells; [3]
  IC50: 103 µM

## CC(=O)NS(=O)(=O)c1ccc(NC(=O)c2ccccc2SC(=O)CCCCC[n+]2ccccc2)cc1 [Compound 55]
HIV-1RF; Table 10, read-out: EC50 %
  pEC50: 4.98
[1]; [4]
  Zinc Finger Reactivity RFU/min: 1.9 RFU/min
CEM-SS cells; [5]
  IC50: 69.7 µM

## O=c1c2ccccc2sn1-c1ccc(S(=O)(=O)c2ccc([N+](=O)[O-])cc2)cc1 [Compound 31 BITA]
HIV-1RF
  antiviral activity (in words): without antiviral activity
[1]; [6]
  Zinc Finger Reactivity RFU/min: 4.1 RFU/min
CEM-SS cells; [7]
  pIC50: < 3.50

## O=C(Nc1ccc(S(=O)(=O)c2ccc([N+](=O)[O-])cc2)cc1)c1ccccc1SSc1ccccc1C(=O)Nc1ccc(S(=O)(=O)c2ccc([N+](=O)[O-])cc2)cc1 [Compound 31 D]
HIV-1RF
  EC50 increase vs compound 26: 2.6 fold
HIV-1RF; [8]
  pEC50: 4.91
[1]; [6]
  Zinc Finger Reactivity RFU/min: 2.9 RFU/min
CEM-SS cells; [7]
  pIC50: < 3.50
CEM-SS cells
  cellular toxicity (in words): non-toxic
CEM-SS cells; listed as 31
  cellular toxicity (in words): no toxicity

## CC(=O)NS(=O)(=O)c1ccc(NC(=O)c2ccccc2SC(C)=O)cc1 [Compound 40]
HIV-1RF; Table 5, read-out: EC50
  pEC50: 5.55
[1]; [2]
  Zinc Finger Reactivity RFU/min: 4.2 RFU/min
CEM-SS cells; [3]
  IC50: 56.7 µM
CEM-SS cells; read-out: IC50 range
  pIC50: ~4.30

## CC(=O)Nc1ccc(S(=O)(=O)Nc2ccc(S(=O)(=O)c3ccc(-n4sc5ccccc5c4=O)cc3)cc2)cc1 [Compound 28 BITA]
HIV-1RF; Table 3, read-out: EC50
  pEC50: 5.02
[1]; [6]
  Zinc Finger Reactivity RFU/min: 7.9 RFU/min
CEM-SS cells; [7]
  pIC50: 3.73

## NS(=O)(=O)c1ccc(CNC(=O)c2ccccc2SSc2ccccc2C(=O)NCc2ccc(S(N)(=O)=O)cc2)cc1 [Compound 23 D, N,N′-(2,2′-dithiodibenzoyl)-bis-4-(aminomethyl)benzene-sulfonanide]
HIV-1RF; Table 2, read-out: EC50
  pEC50: 6.48
[1]
  zinc finger reactivity / zinc ejection rate: 3.3 RFU/min
CEM-SS cells; read-out: toxicity / IC50
  pIC50: 4.71

## CC(=O)NS(=O)(=O)c1ccc(NC(=O)c2ccccc2SC(=O)CCCC[n+]2cccc(Cl)c2)cc1 [Compound 57]
HIV-1RF; Table 10, read-out: EC50 %
  pEC50: 4.27
[1]; [4]
  Zinc Finger Reactivity RFU/min: 0.2 RFU/min
CEM-SS cells; [5]
  IC50: 264 µM

## CC(=O)NS(=O)(=O)c1ccc(NC(=O)c2ccccc2SC(=O)CCC[n+]2ccccc2)cc1 [Compound 54]
HIV-1RF; Table 10, read-out: EC50 %
  pEC50: 5.00
[1]; [4]
  Zinc Finger Reactivity RFU/min: 2.2 RFU/min
CEM-SS cells; [5]
  IC50: 175 µM

## O=C(Nc1ccc(S(=O)(=O)c2ccc(NS(=O)(=O)Cc3ccccc3[N+](=O)[O-])cc2)cc1)c1ccccc1SSc1ccccc1C(=O)Nc1ccc(S(=O)(=O)c2ccc(NS(=O)(=O)Cc3ccccc3[N+](=O)[O-])cc2)cc1 [Compound 34 D]
HIV-1RF
  antiviral activity (in words): significant antiviral activity
HIV-1RF; [8]
  pEC50: 4.91
[1]; [6]
  Zinc Finger Reactivity RFU/min: 1.5 RFU/min
CEM-SS cells; [7]
  pIC50: < 3.50
CEM-SS cells
  cellular toxicity (in words): no toxicity

## O=C(Nc1ccc(S(=O)(=O)c2ccc(NC(=O)c3ccccc3SSc3ccccc3C(=O)Nc3ccc(S(=O)(=O)c4ccc(NC(=O)c5ccc([N+](=O)[O-])cc5)cc4)cc3)cc2)cc1)c1ccc([N+](=O)[O-])cc1 [Compound 32 D]
HIV-1RF; Table 3, read-out: EC50
  pEC50: 4.11
[1]; [6]
  Zinc Finger Reactivity RFU/min: 2.9 RFU/min
CEM-SS cells; [7]
  pIC50: < 3.50

## Nc1ccc(S(=O)(=O)c2ccc(NC(=O)c3ccccc3SSc3ccccc3C(=O)Nc3ccc(S(=O)(=O)c4ccc(N)cc4)cc3)cc2)cc1 [Compound 26 D]
HIV-1RF; Table 3, read-out: EC50
  pEC50: 5.37
HIV-1RF; [8]
  pEC50: 5.37
[1]
  zinc finger reactivity / zinc ejection rate: 3.3 RFU/min
[1]; [6]
  Zinc Finger Reactivity RFU/min: 3.3 RFU/min
CEM-SS cells; [7]
  pIC50: > 3.50

## CC(=O)NS(=O)(=O)c1ccc(NC(=O)c2ccccc2NC(=O)CCCC[n+]2ccccc2)cc1 [Compound 56]
HIV-1RF
  antiviral activity (in words): inactive
[1]; [4]
  Zinc Finger Reactivity RFU/min: 2.6 RFU/min
CEM-SS cells; [5]
  IC50: >316 µM

## O=C(CCCCBr)Sc1ccccc1C(=O)Nc1ccc(S(=O)(=O)c2ccc([N+](=O)[O-])cc2)cc1 [Compound 46]
HIV-1RF; Table 6, read-out: EC50 %
  pEC50: 5.80
[1]; Table 6, average decrease in relative fluorescence units over 30 min
  Zinc Finger Reactivity RFU/min: 1 RFU/min
CEM-SS cells; Table 6, 50% cytotoxicity, read-out: IC50
  pIC50: 4.66

## CC(=O)Nc1ccc(S(=O)(=O)Nc2ccc(S(=O)(=O)c3ccc(NC(=O)c4ccccc4SSc4ccccc4C(=O)Nc4ccc(S(=O)(=O)c5ccc(NS(=O)(=O)c6ccc(NC(C)=O)cc6)cc5)cc4)cc3)cc2)cc1 [Compound 28 D]
HIV-1RF; Table 3, read-out: EC50
  pEC50: 6.00
[1]; [6]
  Zinc Finger Reactivity RFU/min: 5.9 RFU/min
CEM-SS cells; [7]
  pIC50: 4.90

## COc1ccc(C(=O)Sc2ccccc2C(=O)Nc2ccc(S(=O)(=O)NC(C)=O)cc2)cc1 [Compound 42]
HIV-1RF; Table 5, read-out: EC50
  pEC50: 5.55
[1]; [2]
  Zinc Finger Reactivity RFU/min: 3.5 RFU/min
CEM-SS cells; [3]
  IC50: 43.7 µM
CEM-SS cells; read-out: IC50 range
  pIC50: ~4.30

## CC(=O)NS(=O)(=O)c1ccc(NC(=O)c2ccccc2NC(=O)CCl)cc1 [Compound 39]
HIV-1RF
  antiviral activity (in words): completely inactive
[1]; [2]
  Zinc Finger Reactivity RFU/min: 0.3 RFU/min
CEM-SS cells; [3]
  IC50: 202 µM

## O=c1c2ccccc2sn1-c1ccc(S(=O)(=O)c2ccc(NS(=O)(=O)Cc3ccccc3[N+](=O)[O-])cc2)cc1 [Compound 34 BITA]
HIV-1RF
  antiviral activity (in words): significant antiviral activity
HIV-1RF; Table 3, read-out: EC50
  pEC50: 5.49
[1]; [6]
  Zinc Finger Reactivity RFU/min: 2 RFU/min
CEM-SS cells; [7]
  pIC50: 4.23

## CC(=O)NS(=O)(=O)c1ccc(NC(=O)c2ccccc2SC(=O)c2ccccc2)cc1 [Compound 41]
HIV-1RF; Table 5, read-out: EC50
  pEC50: 5.59
[1]; [2]
  Zinc Finger Reactivity RFU/min: 2.2 RFU/min
CEM-SS cells; [3]
  IC50: 45.7 µM
CEM-SS cells; read-out: IC50 range
  pIC50: ~4.30

## CC(=O)Nc1ccc(S(=O)(=O)c2ccc(NC(=O)c3ccccc3SSc3ccccc3C(=O)Nc3ccc(S(=O)(=O)c4ccc(NC(C)=O)cc4)cc3)cc2)cc1 [Compound 27 D]
HIV-1RF; Table 3, read-out: EC50
  pEC50: 5.82
HIV-1RF; [8]
  pEC50: 5.82
[1]
  zinc finger reactivity / zinc ejection rate: 5.9 RFU/min
[1]; [6]
  Zinc Finger Reactivity RFU/min: 5.9 RFU/min
CEM-SS cells; read-out: toxicity / IC50
  pIC50: 3.80

## NS(=O)(=O)c1ccc(NC(=O)CNC(=O)c2ccccc2SSc2ccccc2C(=O)NCC(=O)Nc2ccc(S(N)(=O)=O)cc2)cc1 [Compound 25 D, N,N′-(2,2′-dithiodibenzoyl)-bis-4-(glycinamido)benzenesulfonamide]
HIV-1RF; Table 2, read-out: EC50
  pEC50: 5.80
[1]
  zinc finger reactivity / zinc ejection rate: 7.9 RFU/min
CEM-SS cells; Table 2, 50% cytotoxicity, read-out: IC50
  pIC50: 4.75
